{"source": "patent US4264577A", "about": "“Contraceptive methods and compositions” (Eli Lilly and Company, priority 1980, dated 1981)", "key": {"[1]": {"assay": "Drug release rate in vivo, intrauterine medicated rubber rods", "parameters": "species or system rabbit", "conditions": "uterine horn", "method": "(a) Dimethylpolysiloxane rubber rods (3 mm. diameter shaved to 2 mm.) weighing 40 mg. each and containing 5, 10, or 20% (W/W) of sodium n-tetradecyl sulfate (prepared by Example 3, Method B, lots 218-1, 225-1, and 218-2, respectively) are inserted into the right uterine horn of virgin Dutch -belted female rabbits, as follows:\nAfter 60 days the animals in Group 1 are sacrificed and the rubber rods are removed, washed, and extracted continuously with methanol for 24 hours to remove the remaining sodium n-tetradecyl sulfate. The methanol extract is evaporated. The residue is dissolved in 10% methanol-water and assayed for sodium n-tetradecyl sulfate by the methylene blue method. The amount of active compound remaining in the rod is subtracted from the amount originally present in the rod, and the difference is assumed to be the amount released during the time period. After 120 days or […] the animals in Group 2 and Group 3, respectively, are sacrificed, and the rods were removed and treated as above described. The release of sodium n-tetradecyl sodium sulfate into the uterine fluids, as determined by the afore-described test procedure, after 60, 120, and 180 days is shown in Table 8, below: […]"}, "[2]": {"test_system": "virgin dutch belted female rabbit", "assay": "Antifertility effect by intravaginal administration (K-Y jelly mixture)", "type": "in vivo", "conditions": "1 ml of K-Y jelly mixed with equal volume of 10 mg./ml. solution, 4 animals", "method": "Equal volumes of K-Y-jelly® and either Ca^++ free Ringer's solution or a 10 mg./ml. solution of the compound to be tested in Ca^++ free Ringer's solution are well mixed. One milliliter of this is placed into the vagina of a virgin dutch belted female rabbit using a syringe. The female is then immediately bred to a fertile buck. The female is injected I.V. with […] of human chorionic gonadotrophin to assure a good ovulation rate.\nAfter approximately 14 days the females are sacrificed by cervical dislocation and the genital system examined for the number of embryos."}, "[3]": {"assay": "Drug release rate in vitro from dimethylpolysiloxane rubber, Method A (calcium-free Ringer's, assayed by acrosin inhibition)", "type": "physicochemical", "method": "An appropriate sample of a dimethylpolysiloxane rubber compound in which is incorporated the test compound is placed in a suitable amount of calcium-free Ringers solution, and the sample and solution are incubated together at 37° C. for a period of time (e.g. 24 hours). The solution is removed and assayed for acrosin inhibition (expressed as units per milligram) using the technique described in Example 1. The equivalent amount of test compound in the removed solution is calculated from standard inhibition curves in which acrosin inhibition is plotted against concentration of the test compound. The calculated result are expressed as micrograms of test compound released per day.\nThe above test may be repeated for an extended period of time, for example, for 1 day to 360 days, or more, by adding fresh calcium-free Ringer's solution after each removal of the solution for assay.\nSamples of a dimethylpolysiloxane rubber composition containing 10% W/W of sodium n-tetradecyl sulfate (prepared by Example 3, Method A) were tested as above described for 14 days. The sample weight was 14 mg. and the amount of added solution was 1 ml. After the 14th day, the release rate from the samples averaged 1-3 micrograms/day.\nIn another experiment, a dimethylpolysiloxane rubber composition weighing 400 mg. and containing 10% W/W of sodium tetradecyl sulfate (prepared by Example 3, Method A) was studied for a 90-day period."}}, "data": [{"smiles": "CCCCCCCCCCCCCCOS(=O)(=O)[O-].[Na+]", "note": "[n-tetradecyl, sodium n-tetradecyl sulfate]", "values": [{"measurement": "Amount of sodium n-tetradecyl sulfate released (μg. per day)", "setting": "[1]; 5% compound in rod, 60 days", "result": 2.25, "unit": "μg. per day"}, {"measurement": "Amount of sodium n-tetradecyl sulfate released (μg. per day)", "setting": "[1]; 5% compound in rod, 120 days", "result": 1.80, "unit": "μg. per day"}, {"measurement": "Amount of sodium n-tetradecyl sulfate released (μg. per day)", "setting": "[1]; 5% compound in rod, 180 days", "result": 3.60, "unit": "μg. per day"}, {"measurement": "Amount of sodium n-tetradecyl sulfate released (μg. per day)", "setting": "[1]; 10% compound in rod, 60 days", "result": 22.1, "unit": "μg. per day"}, {"measurement": "Amount of sodium n-tetradecyl sulfate released (μg. per day)", "setting": "[1]; 10% compound in rod, 120 days", "result": 13.7, "unit": "μg. per day"}, {"measurement": "Amount of sodium n-tetradecyl sulfate released (μg. per day)", "setting": "[1]; 20% compound in rod, 60 days", "result": 62.4, "unit": "μg. per day"}, {"measurement": "Amount of sodium n-tetradecyl sulfate released (μg. per day)", "setting": "[1]; 20% compound in rod, 120 days", "result": 33.5, "unit": "μg. per day"}, {"measurement": "Avg. No. of Embryos per animal", "setting": "[2]", "result": 0}, {"measurement": "No. of embryos", "setting": "[2]", "result": 0}, {"measurement": "release rate from the samples (average)", "setting": "[3]; 14 mg sample, 10% W/W, 1 ml solution, after the 14th day", "result": "1-3 micrograms/day"}, {"measurement": "mean release rate", "setting": "[3]; 400 mg composition, 10% W/W, 90-day period", "result": 14, "unit": "µg/day"}, {"measurement": "Amount of sodium n-tetradecyl sulfate released", "setting": "[3]; Day 0.08 (2 hr.), 400 mg composition, 10% W/W", "result": 77, "unit": "µg/day"}, {"measurement": "Amount of sodium n-tetradecyl sulfate released", "setting": "[3]; Day 0.16 (2 hr.), 400 mg composition, 10% W/W", "result": 75, "unit": "µg/day"}, {"measurement": "Amount of sodium n-tetradecyl sulfate released", "setting": "[3]; Day 0.32 (8 hr.), 400 mg composition, 10% W/W", "result": 72, "unit": "µg/day"}, {"measurement": "Amount of sodium n-tetradecyl sulfate released", "setting": "[3]; Day 1, 400 mg composition, 10% W/W", "result": 69, "unit": "µg/day"}, {"measurement": "Amount of sodium n-tetradecyl sulfate released", "setting": "[3]; Day 2, 400 mg composition, 10% W/W", "result": 50, "unit": "µg/day"}, {"measurement": "Amount of sodium n-tetradecyl sulfate released", "setting": "[3]; Day 5, 400 mg composition, 10% W/W", "result": 15, "unit": "µg/day"}, {"measurement": "Amount of sodium n-tetradecyl sulfate released", "setting": "[3]; Day 7, 400 mg composition, 10% W/W", "result": 37.5, "unit": "µg/day"}, {"measurement": "Amount of sodium n-tetradecyl sulfate released", "setting": "[3]; Day 9, 400 mg composition, 10% W/W", "result": 50.0, "unit": "µg/day"}, {"measurement": "Amount of sodium n-tetradecyl sulfate released", "setting": "[3]; Day 12, 400 mg composition, 10% W/W", "result": 13, "unit": "µg/day"}, {"measurement": "Amount of sodium n-tetradecyl sulfate released", "setting": "[3]; Day 13, 400 mg composition, 10% W/W", "result": 0, "unit": "µg/day"}, {"measurement": "Amount of sodium n-tetradecyl sulfate released", "setting": "[3]; Day 15, 400 mg composition, 10% W/W", "result": 25, "unit": "µg/day"}, {"measurement": "Amount of sodium n-tetradecyl sulfate released", "setting": "[3]; Day 18, 400 mg composition, 10% W/W", "result": 28, "unit": "µg/day"}, {"measurement": "Amount of sodium n-tetradecyl sulfate released", "setting": "[3]; Day 27, 400 mg composition, 10% W/W", "result": 10, "unit": "µg/day"}, {"measurement": "Amount of sodium n-tetradecyl sulfate released", "setting": "[3]; Day 42.5, 400 mg composition, 10% W/W", "result": 7.6, "unit": "µg/day"}, {"measurement": "Amount of sodium n-tetradecyl sulfate released", "setting": "[3]; Day 50.5, 400 mg composition, 10% W/W", "result": 10.5, "unit": "µg/day"}, {"measurement": "Amount of sodium n-tetradecyl sulfate released", "setting": "[3]; Day 57.5, 400 mg composition, 10% W/W", "result": 12.0, "unit": "µg/day"}, {"measurement": "Amount of sodium n-tetradecyl sulfate released", "setting": "[3]; Day 64.5, 400 mg composition, 10% W/W", "result": 8.6, "unit": "µg/day"}, {"measurement": "Amount of sodium n-tetradecyl sulfate released", "setting": "[3]; Day 72.5, 400 mg composition, 10% W/W", "result": 8.3, "unit": "µg/day"}, {"measurement": "Amount of sodium n-tetradecyl sulfate released", "setting": "[3]; Day 76, 400 mg composition, 10% W/W", "result": 5.6, "unit": "µg/day"}, {"measurement": "Amount of sodium n-tetradecyl sulfate released", "setting": "[3]; Day 83, 400 mg composition, 10% W/W", "result": 5.1, "unit": "µg/day"}, {"measurement": "Amount of sodium n-tetradecyl sulfate released", "setting": "[3]; Day 90, 400 mg composition, 10% W/W", "result": 5.0, "unit": "µg/day"}, {"measurement": "Release rate from dimethylpolysiloxane, in vitro (Calc. on basis of acrosin inhibition)", "setting": "[3]; rod used in Table 6", "result": "1 to 3", "unit": "mg/day"}]}]}
